Source: ChEMBL document CHEMBL3813646, “Small molecules that target phosphorylation dependent protein-protein interaction” (Bioorg Med Chem, 2016)
Residues, ends and D or L forms follow the SMILES beside them.

What was measured:
14-3-3 protein sigma = molecular target: T1, 14-3-3 protein sigma (Homo sapiens, UniProt P31947); experiment: Inhibition of 14-3-3sigma (unknown origin) assessed as reduction in 14-3-3sigma- mediated increase in MMP1 mRNA by cell based assay
T1 sequence (P31947 whole entry): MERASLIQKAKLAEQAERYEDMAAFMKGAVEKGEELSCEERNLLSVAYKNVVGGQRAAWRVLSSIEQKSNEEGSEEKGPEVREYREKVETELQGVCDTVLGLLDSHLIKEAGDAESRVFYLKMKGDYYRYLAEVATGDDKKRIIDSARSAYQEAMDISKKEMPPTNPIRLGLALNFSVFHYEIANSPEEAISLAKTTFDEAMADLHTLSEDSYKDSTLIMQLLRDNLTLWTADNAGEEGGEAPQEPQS

[1] = molecular target: Serine/threonine-protein kinase PLK1 (Homo sapiens, UniProt P53350); experiment: Inhibition of human Plk1 PBD (326 to 603 residues) using 5-carboxyfluorescein-GPMQSpTPLNG-OH as substrate incubated for 1 hr prior to addition of substrate by fluorescence polarization assay
[2] = molecular target: Serine/threonine-protein kinase PLK2 (Homo sapiens, UniProt Q9NYY3); experiment: Inhibition of human Plk2 PBD (355 to 685 residues) using 5-carboxyfluorescein-GPMQTSpTPKNG-OH as substrate incubated for 1 hr prior to addition of substrate by fluorescence polarization assay
[3] = molecular target: Serine/threonine-protein kinase PLK3 (Homo sapiens, UniProt Q9H4B4); experiment: Inhibition of human Plk3 PBD (335 to 646 residues) using 5-carboxyfluorescein-GPLATSpTPKNG-OH as substrate incubated for 1 hr prior to addition of substrate by fluorescence polarization assay
[4] = molecular target: Serine/threonine-protein kinase Chk2 (Homo sapiens) (UniProt O96017); experiment: Inhibition of Chk2 FHA (1 to 225 residues) (unknown origin) using 5-carboxyfluorescein-GHFDpTYLI-RR-OH as substrate at 40 uM incubated for 1 hr prior to addition of substrate by fluorescence polarization assay
[5] = molecular target: Peptidyl-prolyl cis-trans isomerase NIMA-interacting 1 (Homo sapiens) (UniProt Q13526); experiment: Inhibition of Pin1 (1 to 162 residues) (unknown origin) using 5-carboxyfluorescein-GHFDpTYLI-RR-OH as substrate at 40 uM incubated for 1 hr prior to addition of substrate by fluorescence polarization assay
[6] = molecular target: T2, 14-3-3 protein sigma (Homo sapiens) (UniProt P31947); experiment: Induction of human 14-3-3sigma binding to TASK-3 using FAM-370RRK-pS-V374-COOH by fluorescence polarization assay relative to control
T2 sequence (whole entry): T1 sequence (P31947 whole entry)

[7] = molecular target: T3, 14-3-3 protein beta/alpha (Homo sapiens, UniProt P31946); experiment: Binding affinity to GST-tagged 125I-labelled 14-3-3beta (unknown origin) expressed in Escherichia coli by solid phase assay
T3 sequence (P31946 whole entry): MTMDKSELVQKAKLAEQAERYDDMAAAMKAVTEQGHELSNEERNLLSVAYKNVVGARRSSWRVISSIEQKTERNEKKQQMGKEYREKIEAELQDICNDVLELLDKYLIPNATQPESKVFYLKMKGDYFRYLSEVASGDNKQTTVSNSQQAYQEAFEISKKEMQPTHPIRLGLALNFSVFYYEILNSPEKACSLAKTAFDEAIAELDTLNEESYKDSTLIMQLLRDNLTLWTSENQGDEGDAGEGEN

14-3-3 protein theta = molecular target: T4, 14-3-3 protein theta (Homo sapiens, UniProt P27348); experiment: Binding affinity to GST-tagged 125I-labelled full length human 14-3-3tau expressed in Escherichia coli by solid phase assay
T4 sequence (P27348 whole entry): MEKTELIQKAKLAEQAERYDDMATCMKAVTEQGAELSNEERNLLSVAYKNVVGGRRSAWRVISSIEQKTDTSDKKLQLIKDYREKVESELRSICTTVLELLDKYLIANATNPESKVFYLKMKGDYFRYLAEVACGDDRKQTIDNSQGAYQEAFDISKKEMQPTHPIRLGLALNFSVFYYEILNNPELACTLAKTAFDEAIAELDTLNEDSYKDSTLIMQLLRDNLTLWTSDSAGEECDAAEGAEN

14-3-3 protein eta = molecular target: T5, 14-3-3 protein eta (Homo sapiens, UniProt Q04917); experiment: Binding affinity to GST-tagged 125I-labelled 14-3-3eta (unknown origin) expressed in Escherichia coli by solid phase assay
T5 sequence (Q04917 whole entry): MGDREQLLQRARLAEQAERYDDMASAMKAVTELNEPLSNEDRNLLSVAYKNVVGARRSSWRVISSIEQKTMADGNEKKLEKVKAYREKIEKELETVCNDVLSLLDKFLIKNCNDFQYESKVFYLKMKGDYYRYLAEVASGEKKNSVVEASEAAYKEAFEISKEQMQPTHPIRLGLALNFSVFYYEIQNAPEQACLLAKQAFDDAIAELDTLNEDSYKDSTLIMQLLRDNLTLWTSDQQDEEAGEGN

Chain of Serine/threonine-protein kinase PLK2 (Q9NYY3 whole entry, the tested form may be a part): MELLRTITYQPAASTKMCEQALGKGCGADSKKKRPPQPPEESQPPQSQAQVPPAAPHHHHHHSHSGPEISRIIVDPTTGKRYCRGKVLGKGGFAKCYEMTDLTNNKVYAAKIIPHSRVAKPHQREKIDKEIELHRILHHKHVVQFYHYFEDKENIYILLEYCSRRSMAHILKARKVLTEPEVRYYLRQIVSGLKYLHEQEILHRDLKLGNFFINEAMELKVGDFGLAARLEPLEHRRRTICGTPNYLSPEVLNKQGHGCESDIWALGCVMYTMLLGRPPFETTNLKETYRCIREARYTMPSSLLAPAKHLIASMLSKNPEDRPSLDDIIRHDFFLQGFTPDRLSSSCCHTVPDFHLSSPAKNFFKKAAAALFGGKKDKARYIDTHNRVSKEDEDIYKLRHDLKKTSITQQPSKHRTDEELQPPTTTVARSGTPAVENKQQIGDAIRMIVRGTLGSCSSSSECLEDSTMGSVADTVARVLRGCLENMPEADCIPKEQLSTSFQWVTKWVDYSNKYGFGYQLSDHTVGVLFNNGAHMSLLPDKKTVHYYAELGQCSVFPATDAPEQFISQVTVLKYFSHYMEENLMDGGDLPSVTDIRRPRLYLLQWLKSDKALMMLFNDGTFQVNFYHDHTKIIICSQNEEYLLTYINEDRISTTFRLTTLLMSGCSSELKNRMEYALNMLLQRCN
Chain of Serine/threonine-protein kinase PLK3 (Q9H4B4 whole entry, the tested form may be a part): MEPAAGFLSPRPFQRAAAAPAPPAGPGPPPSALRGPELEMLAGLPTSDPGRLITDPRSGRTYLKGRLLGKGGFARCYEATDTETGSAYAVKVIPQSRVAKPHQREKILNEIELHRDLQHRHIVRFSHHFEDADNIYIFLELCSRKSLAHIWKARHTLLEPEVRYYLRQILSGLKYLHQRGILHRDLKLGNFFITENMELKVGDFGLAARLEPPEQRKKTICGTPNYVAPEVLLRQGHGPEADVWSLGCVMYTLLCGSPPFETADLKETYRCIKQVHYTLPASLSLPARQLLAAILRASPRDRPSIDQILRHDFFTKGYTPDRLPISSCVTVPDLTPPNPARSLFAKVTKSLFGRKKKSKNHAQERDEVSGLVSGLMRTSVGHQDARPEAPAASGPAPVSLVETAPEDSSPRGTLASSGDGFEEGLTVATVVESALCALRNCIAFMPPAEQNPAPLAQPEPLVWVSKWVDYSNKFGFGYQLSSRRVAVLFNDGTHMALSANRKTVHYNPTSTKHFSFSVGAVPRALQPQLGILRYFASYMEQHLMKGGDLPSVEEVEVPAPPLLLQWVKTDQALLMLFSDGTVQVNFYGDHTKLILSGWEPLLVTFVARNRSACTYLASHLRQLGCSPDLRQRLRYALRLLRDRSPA
Chain of Serine/threonine-protein kinase Chk2 (Homo sapiens) (O96017 whole entry, the tested form may be a part): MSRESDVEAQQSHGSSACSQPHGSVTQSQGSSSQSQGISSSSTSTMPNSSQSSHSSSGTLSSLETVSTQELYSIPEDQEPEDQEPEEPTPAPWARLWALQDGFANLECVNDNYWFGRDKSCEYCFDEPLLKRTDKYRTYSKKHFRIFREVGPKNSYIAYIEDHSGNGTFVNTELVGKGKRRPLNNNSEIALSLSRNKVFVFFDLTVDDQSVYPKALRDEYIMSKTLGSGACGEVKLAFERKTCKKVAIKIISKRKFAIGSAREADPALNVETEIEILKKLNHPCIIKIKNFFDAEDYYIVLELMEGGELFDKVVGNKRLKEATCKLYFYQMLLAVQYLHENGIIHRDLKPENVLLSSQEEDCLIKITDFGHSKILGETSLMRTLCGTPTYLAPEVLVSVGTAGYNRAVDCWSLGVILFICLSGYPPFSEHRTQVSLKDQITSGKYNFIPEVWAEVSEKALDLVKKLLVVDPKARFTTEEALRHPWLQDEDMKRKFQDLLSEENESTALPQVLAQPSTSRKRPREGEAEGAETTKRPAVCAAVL
Chain of Peptidyl-prolyl cis-trans isomerase NIMA-interacting 1 (Homo sapiens) (Q13526 whole entry, the tested form may be a part): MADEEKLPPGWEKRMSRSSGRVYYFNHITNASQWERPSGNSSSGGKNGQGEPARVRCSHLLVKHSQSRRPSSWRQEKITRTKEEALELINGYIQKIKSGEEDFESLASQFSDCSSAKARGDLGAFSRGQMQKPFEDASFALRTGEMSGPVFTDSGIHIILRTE
Chain of Serine/threonine-protein kinase PLK1 (P53350 whole entry, the tested form may be a part): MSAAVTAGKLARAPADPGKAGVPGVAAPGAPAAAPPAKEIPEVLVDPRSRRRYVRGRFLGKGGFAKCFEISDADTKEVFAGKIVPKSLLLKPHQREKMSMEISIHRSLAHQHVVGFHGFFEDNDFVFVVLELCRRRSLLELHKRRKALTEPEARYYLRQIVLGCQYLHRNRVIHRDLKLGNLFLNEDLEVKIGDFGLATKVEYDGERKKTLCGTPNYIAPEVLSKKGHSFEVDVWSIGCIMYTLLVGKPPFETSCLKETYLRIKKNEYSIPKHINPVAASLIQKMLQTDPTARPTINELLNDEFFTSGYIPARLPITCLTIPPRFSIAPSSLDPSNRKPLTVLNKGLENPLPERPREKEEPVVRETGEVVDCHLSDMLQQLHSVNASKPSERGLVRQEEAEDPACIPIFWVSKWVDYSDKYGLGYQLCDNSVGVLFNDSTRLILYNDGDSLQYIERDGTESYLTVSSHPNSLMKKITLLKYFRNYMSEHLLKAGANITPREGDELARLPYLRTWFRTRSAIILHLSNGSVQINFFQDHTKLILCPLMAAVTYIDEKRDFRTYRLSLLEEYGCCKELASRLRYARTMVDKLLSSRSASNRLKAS

## O=C(COc1ccccc1P(=O)(O)O)Nc1cccc(Cl)c1Cl
14-3-3 protein sigma
  IC50: 5 µM

## COc1ccc(Br)cc1/C=c1\sc2nc(=O)c(C)nn2c1=O
[1]
  IC50: 3.2 µM
[2]
  IC50: 1.7 µM
[3]
  IC50: 3 µM
[4]
  inhibition: 35%
[5]
  inhibition: 32%

## COC[C@H]1CC[C@@H]2/C1=C\[C@]1(C)C(=C(C(C)C)[C@@H]3CCO[C@@H]31)[C@@H](O[C@H]1O[C@@H]3COC(C)(C)O[C@H]3[C@H](O)[C@H]1O)[C@H](O)[C@@H]2C
[6]
  fold change (FC): 19

## CSCC[C@H](NC(=O)[C@H](CC(N)=O)NC(=O)[C@H](C)NC(=O)[C@H](CCC(=O)O)NC(=O)[C@H](CC(C)C)NC(=O)[C@H](CC(=O)O)NC(=O)[C@H](CC(C)C)NC(=O)[C@H](Cc1c[nH]c2ccccc12)NC(=O)[C@H](CO)NC(=O)[C@H](CC(C)C)NC(=O)[C@H](CC(=O)O)NC(=O)[C@H](CCCNC(=N)N)NC(=O)[C@@H]1CCCN1C(=O)[C@@H](NC(=O)[C@H](CS)NC(=O)[C@H](Cc1cnc[nH]1)NC(=O)[C@@H]1CCCN1)C(C)C)C(=O)N[C@@H](CS)C(=O)N[C@@H](CC(C)C)C(=O)N1CCC[C@H]1C(=O)O (H-PHCVPRDLSWLDLEANMCLP-OH)
[7]
  Kd: 0.07 µM
14-3-3 protein theta
  Kd: 0.07 µM
14-3-3 protein eta
  Kd: 0.07 µM
